Data published in PubChem BioAssay (NCI).
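Results reflect a 48-hour exposure of cells in 96-well plates to compound at five concentrations. GI50: concentration for 50% inhibition of growth. Definition used: TGI = concentration required for complete inhibition of growth.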

Legend:
Assay in all cases: DTP human tumour cell line panel, 48 h
SF-295 CNS = tested on: SF-295 CNS
OVCAR-5 ovarian = tested on: OVCAR-5 ovarian
786-0 renal = tested on: 786-0 renal
OVCAR-3 ovarian = tested on: OVCAR-3 ovarian
HCT-15 colon = tested on: HCT-15 colon
NCI-H226 lung = tested on: NCI-H226 lung
SK-MEL-28 melanoma = tested on: SK-MEL-28 melanoma
IGROV1 ovarian = tested on: IGROV1 ovarian
UO-31 renal = tested on: UO-31 renal
NCI-H23 lung = tested on: NCI-H23 lung
NCI-H460 lung = tested on: NCI-H460 lung
KM12 colon = tested on: KM12 colon
RPMI-8226 leukemia = tested on: RPMI-8226 leukemia
MOLT-4 leukemia = tested on: MOLT-4 leukemia
RXF 393 renal = tested on: RXF 393 renal
A498 renal = tested on: A498 renal
CAKI-1 renal = tested on: CAKI-1 renal
SK-MEL-2 melanoma = tested on: SK-MEL-2 melanoma
U251 CNS = tested on: U251 CNS
CCRF-CEM leukemia = tested on: CCRF-CEM leukemia
SF-268 CNS = tested on: SF-268 CNS
MDA-MB-231 breast = tested on: MDA-MB-231 breast
UACC-257 melanoma = tested on: UACC-257 melanoma
HS 578T breast = tested on: HS 578T breast
HCT-116 colon = tested on: HCT-116 colon
NCI-H522 lung = tested on: NCI-H522 lung
MALME-3M melanoma = tested on: MALME-3M melanoma
MDA-MB-435 = tested on: MDA-MB-435
HT29 colon = tested on: HT29 colon
SK-OV-3 ovarian = tested on: SK-OV-3 ovarian
HOP-92 NSCLC = tested on: HOP-92 NSCLC
BT-549 breast = tested on: BT-549 breast
HL-60(TB) leukemia = tested on: HL-60(TB) leukemia
COLO 205 colon = tested on: COLO 205 colon
DU-145 prostate = tested on: DU-145 prostate
PC-3 prostate = tested on: PC-3 prostate
TK-10 renal = tested on: TK-10 renal
SNB-75 CNS = tested on: SNB-75 CNS
A549 NSCLC = tested on: A549 NSCLC
NCI/ADR-RES ovarian = tested on: NCI/ADR-RES ovarian
K-562 leukemia = tested on: K-562 leukemia
OVCAR-8 ovarian = tested on: OVCAR-8 ovarian
SN12C renal = tested on: SN12C renal
T-47D breast = tested on: T-47D breast
SK-MEL-5 melanoma = tested on: SK-MEL-5 melanoma
MCF7 breast = tested on: MCF7 breast
EKVX NSCLC = tested on: EKVX NSCLC
HOP-62 NSCLC = tested on: HOP-62 NSCLC
OVCAR-4 ovarian = tested on: OVCAR-4 ovarian
SW-620 colon = tested on: SW-620 colon
ACHN renal = tested on: ACHN renal
SNB-19 CNS = tested on: SNB-19 CNS
SR leukemia = tested on: SR leukemia
LOX IMVI melanoma = tested on: LOX IMVI melanoma
HCC-2998 colon = tested on: HCC-2998 colon
UACC-62 melanoma = tested on: UACC-62 melanoma
SF-539 CNS = tested on: SF-539 CNS
M14 melanoma = tested on: M14 melanoma
MDA-N = tested on: MDA-N

## Cc1cccc2c(N)c3ccccc3nc12
SF-295 CNS
  GI50: 1.67 µM
  TGI: 10.4 µM
OVCAR-5 ovarian
  GI50: 1.37 µM
  TGI: 11.9 µM
786-0 renal
  GI50: 1.54 µM
  TGI: 7.49 µM
OVCAR-3 ovarian
  GI50: 2.13 µM
  TGI: 10 µM
HCT-15 colon
  GI50: 0.67 µM
  TGI: 10.4 µM
NCI-H226 lung
  GI50: 1.44 µM
  TGI: 6.19 µM
SK-MEL-28 melanoma
  GI50: 2.34 µM
  TGI: 6.53 µM
IGROV1 ovarian
  GI50: 2.18 µM
  TGI: 9.67 µM
UO-31 renal
  GI50: 0.595 µM
  TGI: 6.09 µM
NCI-H23 lung
  GI50: 1.81 µM
  TGI: 7.49 µM
NCI-H460 lung
  GI50: 0.523 µM
  TGI: 10.5 µM
KM12 colon
  GI50: 1.78 µM
  TGI: 12.2 µM
RPMI-8226 leukemia
  GI50: 2.47 µM
  TGI: 6.73 µM
MOLT-4 leukemia
  GI50: 0.556 µM
  TGI: 11.1 µM
RXF 393 renal
  GI50: 1.36 µM
  TGI: 3.72 µM
A498 renal
  GI50: 0.604 µM
  TGI: 2.28 µM
CAKI-1 renal
  GI50: 0.966 µM
  TGI: 11.6 µM
SK-MEL-2 melanoma
  GI50: 1.68 µM
  TGI: 3.84 µM
U251 CNS
  GI50: 2.19 µM
  TGI: 7.84 µM
CCRF-CEM leukemia
  GI50: 2.54 µM
  TGI: 10.2 µM
SF-268 CNS
  GI50: 1.5 µM
  TGI: 9.22 µM
MDA-MB-231 breast
  GI50: 1.26 µM
  TGI: 5.26 µM
UACC-257 melanoma
  GI50: 1.87 µM
  TGI: 3.63 µM
HS 578T breast
  GI50: 3.44 µM
  TGI: 17.4 µM
HCT-116 colon
  GI50: 0.454 µM
  TGI: 11.2 µM
NCI-H522 lung
  GI50: 1.45 µM
  TGI: 4.12 µM
MALME-3M melanoma
  GI50: 1.39 µM
  TGI: 3.21 µM
MDA-MB-435
  GI50: 1.67 µM
  TGI: 4.54 µM
HT29 colon
  GI50: 0.593 µM
  TGI: 3.58 µM
SK-OV-3 ovarian
  GI50: 2.12 µM
  TGI: 17.4 µM
HOP-92 NSCLC
  GI50: 2.18 µM
  TGI: 6.05 µM
BT-549 breast
  GI50: 3.23 µM
  TGI: 12.9 µM
HL-60(TB) leukemia
  GI50: 2.41 µM
  TGI: 10.3 µM
COLO 205 colon
  GI50: 0.463 µM
  TGI: 2.31 µM
DU-145 prostate
  GI50: 1.53 µM
  TGI: 12.3 µM
PC-3 prostate
  GI50: 2.32 µM
  TGI: 8.17 µM
TK-10 renal
  GI50: 1.78 µM
  TGI: 8.27 µM
SNB-75 CNS
  GI50: 1.47 µM
  TGI: 4.14 µM
A549 NSCLC
  GI50: 1.02 µM
  TGI: 4.02 µM
NCI/ADR-RES ovarian
  GI50: 1.32 µM
  TGI: 12.8 µM
K-562 leukemia
  GI50: 1.3 µM
  TGI: 13.5 µM
OVCAR-8 ovarian
  GI50: 0.94 µM
  TGI: 10.7 µM
SN12C renal
  GI50: 1.16 µM
  TGI: 12.7 µM
T-47D breast
  GI50: 2.19 µM
  TGI: 6.85 µM
SK-MEL-5 melanoma
  GI50: 1.77 µM
  TGI: 3.26 µM
MCF7 breast
  GI50: 1.32 µM
  TGI: 11.6 µM
EKVX NSCLC
  GI50: 2.76 µM
  TGI: 9.99 µM
HOP-62 NSCLC
  GI50: 0.854 µM
  TGI: 5.3 µM
OVCAR-4 ovarian
  GI50: 1.69 µM
  TGI: 11.7 µM
SW-620 colon
  GI50: 0.699 µM
  TGI: 11.9 µM
ACHN renal
  GI50: 0.561 µM
  TGI: 14.5 µM
SNB-19 CNS
  GI50: 2.06 µM
  TGI: 16.7 µM
SR leukemia
  GI50: 0.727 µM
  TGI: 13.3 µM
LOX IMVI melanoma
  GI50: 0.616 µM
  TGI: 3.66 µM
HCC-2998 colon
  GI50: 1.24 µM
  TGI: 4.35 µM
UACC-62 melanoma
  GI50: 1.56 µM
  TGI: 4.6 µM
SF-539 CNS
  GI50: 1.09 µM
  TGI: 4.28 µM
M14 melanoma
  GI50: 1.87 µM
  TGI: 5.19 µM

## COc1cc(C(=O)Oc2c(C#N)sc3c2c(=O)n(-c2ccccc2)c(=S)n3-c2ccccc2)cc(OC)c1OC
SF-295 CNS
  TGI: 27.9 µM
OVCAR-5 ovarian
  TGI: 46.7 µM
786-0 renal
  TGI: > 100 µM
OVCAR-3 ovarian
  TGI: > 100 µM
HCT-15 colon
  TGI: 43 µM
NCI-H226 lung
  TGI: 32.7 µM
SK-MEL-28 melanoma
  TGI: 46.3 µM
IGROV1 ovarian
  TGI: 41 µM
NCI-H23 lung
  TGI: 38.9 µM
NCI-H460 lung
  TGI: 68.1 µM
KM12 colon
  TGI: 39.7 µM
RPMI-8226 leukemia
  TGI: 28.2 µM
MOLT-4 leukemia
  TGI: 40.6 µM
RXF 393 renal
  TGI: 47.9 µM
A498 renal
  TGI: 19.6 µM
CAKI-1 renal
  TGI: 84.3 µM
U251 CNS
  TGI: 45.9 µM
CCRF-CEM leukemia
  TGI: 28.9 µM
SF-268 CNS
  TGI: 84.2 µM
MDA-MB-231 breast
  TGI: 77.9 µM
UACC-257 melanoma
  TGI: > 100 µM
HS 578T breast
  TGI: 42.5 µM
MDA-N
  TGI: > 100 µM
HCT-116 colon
  TGI: 35.5 µM
NCI-H522 lung
  TGI: 2.11 µM
MALME-3M melanoma
  TGI: 28 µM
MDA-MB-435
  TGI: 36.8 µM
HT29 colon
  TGI: 22.4 µM
SK-OV-3 ovarian
  TGI: > 100 µM
HOP-92 NSCLC
  TGI: 64.4 µM
HL-60(TB) leukemia
  TGI: 41.3 µM
COLO 205 colon
  TGI: 30.7 µM
DU-145 prostate
  TGI: 42.3 µM
PC-3 prostate
  TGI: > 100 µM
TK-10 renal
  TGI: 95.9 µM
SNB-75 CNS
  TGI: 50.3 µM
A549 NSCLC
  TGI: 95.3 µM
NCI/ADR-RES ovarian
  TGI: 41.3 µM
K-562 leukemia
  TGI: 82.2 µM
OVCAR-8 ovarian
  TGI: 59.2 µM
SN12C renal
  TGI: 32.3 µM
T-47D breast
  TGI: > 100 µM
SK-MEL-5 melanoma
  TGI: 31.6 µM
MCF7 breast
  TGI: 57.1 µM
EKVX NSCLC
  TGI: 42.2 µM
HOP-62 NSCLC
  TGI: 48.3 µM
OVCAR-4 ovarian
  TGI: 80.9 µM
SW-620 colon
  TGI: 68 µM
ACHN renal
  TGI: > 100 µM
SNB-19 CNS
  TGI: 72 µM
SR leukemia
  TGI: > 100 µM
LOX IMVI melanoma
  TGI: 51.6 µM
HCC-2998 colon
  TGI: 45.2 µM
UACC-62 melanoma
  TGI: 54.7 µM
SF-539 CNS
  TGI: 24.1 µM
M14 melanoma
  TGI: 25.6 µM
